The values below are quoted from earlier work in US20260191834A1, “PHARMACEUTICAL COMBINATION FOR THE TREATMENT OF MULTIPLE MYELOMA, MONOCLONAL GAMMOPATHY OF UNDETERMINED SIGNIFICANCE, AND SMOLDERING MULTIPLE MYELOMA” (priority 2022, published 2026).

Regarding `CC[C@H]1OC(=O)[C@H](C)[C@@H](O[C@H]2C[C@@](C)(OC)[C@@H](O)[C@H](C)O2)[C@H](C)[C@@H](O[C@@H]2O[C@H](C)C[C@H](N(C)C)[C@H]2O)[C@](C)(OC)C[C@@H](C)C(=O)[C@H](C)[C@@H](O)[C@]1(C)O` [clarithromycin, Clarithromycin], under “as an add-on to chemotherapies”, the “efficacy for treating multiple myeloma” value is “reported and confirmed”. For the same molecule, the “efficacy for Multiple Myeloma” value (given alone as a single treatment) was “no efficacy”.
